Measured values from PubChem BioAssay AID1963829 (Molecular Pharmacology Branch, DTP, NCI, 2024).

Tested on: 935938-334-R-J1-PDC complex spheroid viability
Assay: Anticancer human tumor 935938-334-R-J1-PDC patient-derived small intestine adenocarcinoma cell line growth inhibition [POLQ]
Settings: for IC50: curve of first compound; for viability, T/C: stronger effect = lower value
How it was run: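 Three-cell-type spheroids modelling solid tumor plus stroma served as the readout system; POL inhibitors were tested individually and in combination, concentration ranges set by clinical Cmax where known.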

[1] = second compound 0.0316 µM, first compound 0.0316 µM
[2] = second compound 0.0316 µM, first compound 0.1 µM
[3] = second compound 0.1 µM, first compound 0.0316 µM
[4] = second compound 0.1 µM, first compound 0.1 µM
[5] = second compound 0.316 µM, first compound 0.0316 µM
[6] = second compound 0.316 µM, first compound 0.1 µM
[7] = second compound 1 µM, first compound 0.0316 µM
[8] = second compound 1 µM, first compound 0.1 µM
[9] = second compound 3.16 µM, first compound 0.0316 µM
[10] = second compound 3.16 µM, first compound 0.1 µM
[11] = second compound 10 µM, first compound 0.0316 µM
[12] = second compound 10 µM, first compound 0.1 µM
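Note: spheroids exposed to drugs for seven days before viability read.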
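Throughout, for viability, T/C: 100% = DMSO vehicle control wells.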

In the case of `CC[C@@]1(O)C(=O)OCc2c1cc1n(c2=O)Cc2cc3c(CN(C)C)c(O)ccc3nc2-1` + Nc1ccc(C#CCN(C(=O)Cc2ncc(C(F)(F)F)cc2C(F)(F)F)c2ccc(F)cc2)nn1, the IC50 (second compound 0.0316 µM) is reported as over 100 nM, the IC50 (second compound 0.1 µM) is reported as over 100 nM and the IC50 (second compound 0.316 µM) is reported as over 100 nM. For the same molecule, the IC50 (second compound 1 µM) was over 100 nM, the IC50 (second compound 3.16 µM) was over 100 nM and the IC50 (second compound 10 µM) was over 100 nM. The viability, T/C (second compound 0.0316 µM, first compound 0.000316 µM) was 73.9%, the viability, T/C (second compound 0.0316 µM, first compound 0.001 µM) was 96.8% and the viability, T/C (second compound 0.0316 µM, first compound 0.00316 µM) was 97.6%. For the same molecule, the viability, T/C (second compound 0.0316 µM, first compound 0.01 µM) was 91.9%, the viability, T/C [1] was 84.3% and the viability, T/C [2] was 60.2%. For the same molecule, the viability, T/C (second compound 0.1 µM, first compound 0.000316 µM) was 98.6%, the viability, T/C (second compound 0.1 µM, first compound 0.001 µM) was 101% and the viability, T/C (second compound 0.1 µM, first compound 0.00316 µM) was 113%. The viability, T/C (second compound 0.1 µM, first compound 0.01 µM) was 98.1%, the viability, T/C [3] was 96.7% and the viability, T/C [4] was 63%. For the same molecule, the viability, T/C (second compound 0.316 µM, first compound 0.000316 µM) was 129%, the viability, T/C (second compound 0.316 µM, first compound 0.001 µM) was 130% and the viability, T/C (second compound 0.316 µM, first compound 0.00316 µM) was 99.2%. For the same molecule, the viability, T/C (second compound 0.316 µM, first compound 0.01 µM) was 82.6%, the viability, T/C [5] was 87.4% and the viability, T/C [6] was 57%. The viability, T/C (second compound 1 µM, first compound 0.000316 µM) was 132%, the viability, T/C (second compound 1 µM, first compound 0.001 µM) was 117% and the viability, T/C (second compound 1 µM, first compound 0.00316 µM) was 77.8%. The viability, T/C (second compound 1 µM, first compound 0.01 µM) was 105%, the viability, T/C [7] was 86.7% and the viability, T/C [8] was 48%. It also gave a viability, T/C (second compound 3.16 µM, first compound 0.000316 µM) of 110%, a viability, T/C (second compound 3.16 µM, first compound 0.001 µM) of 110% and a viability, T/C (second compound 3.16 µM, first compound 0.00316 µM) of 96.9%. It also gave a viability, T/C (second compound 3.16 µM, first compound 0.01 µM) of 116%, a viability, T/C [9] of 84% and a viability, T/C [10] of 65.1%. For the same molecule, the viability, T/C (second compound 10 µM, first compound 0.000316 µM) was 163%, the viability, T/C (second compound 10 µM, first compound 0.001 µM) was 117% and the viability, T/C (second compound 10 µM, first compound 0.00316 µM) was 111%. The viability, T/C (second compound 10 µM, first compound 0.01 µM) was 72.7%, the viability, T/C [11] was 103% and the viability, T/C [12] was 48.6%.
`COc1cc(C2c3cc4c(cc3C(OC3OC5COC(C)OC5C(O)C3O)C3COC(=O)C23)OCO4)cc(OC)c1O` (centres undefined) + COC1C(OC(N)=O)C(O)C(Oc2ccc3c(O)c(NC(=O)c4ccc(O)c(CC=C(C)C)c4)c(=O)oc3c2C)OC1(C)C gave an IC50 (second compound 0.0316 µM) of 1040 nM, an IC50 (second compound 0.1 µM) of 683 nM and an IC50 (second compound 0.316 µM) of 691 nM. The IC50 (second compound 1 µM) was 569 nM, the IC50 (second compound 3.16 µM) was 887 nM and the IC50 (second compound 10 µM) was 706 nM. For the same molecule, the viability, T/C [1] was 97.7%, the viability, T/C [2] was 81.4% and the viability, T/C (second compound 0.0316 µM, first compound 0.316 µM) was 70.2%. It also gave a viability, T/C (second compound 0.0316 µM, first compound 1 µM) of 47.3%, a viability, T/C (second compound 0.0316 µM, first compound 3.16 µM) of 39.5% and a viability, T/C (second compound 0.0316 µM, first compound 10 µM) of 29.4%. For the same molecule, the viability, T/C [3] was 105%, the viability, T/C [4] was 94% and the viability, T/C (second compound 0.1 µM, first compound 0.316 µM) was 67.3%. The viability, T/C (second compound 0.1 µM, first compound 1 µM) was 41.8%, the viability, T/C (second compound 0.1 µM, first compound 3.16 µM) was 30.8% and the viability, T/C (second compound 0.1 µM, first compound 10 µM) was 30.7%. For the same molecule, the viability, T/C [5] was 134%, the viability, T/C [6] was 85.2% and the viability, T/C (second compound 0.316 µM, first compound 0.316 µM) was 80.4%. For the same molecule, the viability, T/C (second compound 0.316 µM, first compound 1 µM) was 32.8%, the viability, T/C (second compound 0.316 µM, first compound 3.16 µM) was 27.5% and the viability, T/C (second compound 0.316 µM, first compound 10 µM) was 26%. It also gave a viability, T/C [7] of 105%, a viability, T/C [8] of 126% and a viability, T/C (second compound 1 µM, first compound 0.316 µM) of 62.2%. For the same molecule, the viability, T/C (second compound 1 µM, first compound 1 µM) was 57.6%, the viability, T/C (second compound 1 µM, first compound 3.16 µM) was 26.7% and the viability, T/C (second compound 1 µM, first compound 10 µM) was 30.6%. For the same molecule, the viability, T/C [9] was 78%, the viability, T/C [10] was 108% and the viability, T/C (second compound 3.16 µM, first compound 0.316 µM) was 83.3%. The viability, T/C (second compound 3.16 µM, first compound 1 µM) was 46.7%, the viability, T/C (second compound 3.16 µM, first compound 3.16 µM) was 28.9% and the viability, T/C (second compound 3.16 µM, first compound 10 µM) was 32.6%. For the same molecule, the viability, T/C [11] was 96.9%, the viability, T/C [12] was 75.9% and the viability, T/C (second compound 10 µM, first compound 0.316 µM) was 68.7%. For the same molecule, the viability, T/C (second compound 10 µM, first compound 1 µM) was 43.9%, the viability, T/C (second compound 10 µM, first compound 3.16 µM) was 27.4% and the viability, T/C (second compound 10 µM, first compound 10 µM) was 35.5%.
